Tests used:
Assay type in all cases: cell-based
bacteria [1] = assay: Cell viability with vital stain (propidium iodide, PI); details: thymol 2.66 mM, sucrose 1.17 OsM; after 1 hr
Description: FIG. 3A. Photomicrographs of cells that were: untreated; or treated with sucrose, or thymol or sucrose and thymol (S+T).

bacteria [2] = assay: Bactericidal action of hypertonic sucrose with or without membrane permeabilizing agent
bacteria [3] = assay: Bactericidal log reduction after 10 and 60 min treatment; details: for Log Red - 10 min: 10 min treatment; for Log Red - 60 min: 60 min treatment
Method: Referring now to FIG. 4, the bactericidal effect of osmopermeation is fast acting and occurs in less than 10 minutes, as shown. Finally, osmopermeation is wide spectrum in nature and effective in treating both Gram (+) and Gram (−) bacterial strains.

MRSA = assay: Dose response, MIC and combination index, 24 hrs of treatment; details: thymol emulsion
Description: (§1) Responses represent 24 hrs of treatment. Six specific combinations (S+T) of sucrose and thymol are also plotted for each strain. The effect level (Fa) represents a value between 0 and 1.0 with 0 being no effect and 1.0 being all cells affected. (B) Normalized isobolograms defining the interaction between S and T. Numbered points correspond to the specific combinations enumerated in the table. Table denotes the minimum inhibitory concentrations (MICs) for each treatment as well as outcomes of the six S+T combinations. The nature of the two-treatment interaction is measured via the combination index (CI). The CI<1 is roughly defined as synergistic, ˜1 is additive and CI>1 is antagonistic. See Chou T C. “Theoretical basis, experimental design and computerized simulation of synergism and antagonism in drug combination studies”. Pharmacol. Rev. 2006; […]:621-81. Synergistic interactions were found in combinations with various hyperosmotic pressures and concentrations of the membrane permeabilizing agent.
(§2) Data collected with 4 strains of bacterial E. coli, E, faecalis, S. aureus and MRSA.

E. coli = assay: as above; details: thymol emulsion
Description: as §1, §2

E. faecalis = assay: as above; details: thymol emulsion
Description: as §1, §2

S. aureus = assay: as above; details: thymol emulsion
Description: as §1, §2

bacteria [4] = assay: Measurement of 260/280 nm absorbing material (bacteriolysis, loss of intracellular proteins); details: sucrose 1.17 OsM, thymol 2.66 mM

| SMILES | effect on cell viability (PI vital stain) (bacteria [1]) | bactericidal effect (bacteria [2]) | Log Red - 10 min (bacteria [3]) | Log Red - 60 min (bacteria [3]) | MICT (MRSA) [mM] | MICT (E. coli) [mM] | MICT (E. faecalis) [mM] | MICT (S. aureus) [mM] | 280 nm (A.U.) (bacteria [4]; absorbing material released) | absorbance at 260 nm (bacteria [4]; absorbing material released) | 260/280 nm (bacteria [4]; ratio of absorbances) |
| --- | --- | --- | --- | --- | --- | --- | --- | --- | --- | --- | --- |
| OC[C@H]1O[C@@](CO)(O[C@H]2O[C@H](CO)[C@@H](O)[C@H](O)[C@H]2O)[C@@H](O)[C@@H]1O [Sucrose (S), sucrose] | little effect on cell viability | no bactericidal effect and actually permits cell proliferation | <0.5 | <0.2 |  |  |  |  |  |  |  |
| Cc1ccc(C(C)C)c(O)c1 [Thymol (T), 2-isopropyl-5-methylphenol] | little effect on cell viability | no significant bactericidal effect | ~6.4 | ~6.7 | 1.65 | 2.60 | 2.60 | 1.65 | 1.02 | .99 A.U. | 0.97 |
